Source: patent US8669291B2, “Phenyl substituted cycloalkylamines as monoamine reuptake inhibitors” (Sunovion Pharmaceuticals Inc., priority 2007, dated 2014)
Read-outs that look alike come from different tables or passages of the source.

Key:
mice [1] = experiment: Mouse Tail Suspension Test; assay type: in vivo; details: PO
Description: The method, which detects antidepressant activity, follows that described by Stéru et al (Psychopharmacology, 85: 367-370 (1985)). Rodents, suspended by the tail, rapidly become immobile. Antidepressants decrease the duration of immobility.
The behavior of the animal was recorded automatically for 5 minutes using a computerized device (Med-Associates Inc.) similar to that developed by Stéru et al (Prog. Neuropsychopharmacol. Exp. Psychiatry 11: 659-671 (1987)). Ten to twelve mice were tested in each group. Compounds were typically evaluated at 3 doses (1-30 mg/kg), administered orally one time: 30-60 minutes before the test, and compared with a vehicle control group. Desipramine (100 mg/kg), administered under the same experimental conditions, was used as the positive reference substance.
(§1) Data were analyzed by one way analysis of variance (ANOVA) followed by post-hoc comparisons where appropriate. An effect was considered significant if p<0.05. Data are represented as the mean and standard error to the mean (s.e.m).

rats = experiment: Rat Locomotor Activity; assay type: in vivo; details: PO
Description: (§2) In order to ensure effects of the compounds on immobility time were not related to a general stimulant effect on baseline motor activity, locomotor activity was assessed using photocell monitored cages (Med-Associates Inc.). Each test chamber was equipped with infrared photocell beams to measure movement of the animals. Horizontal and vertical activity were measured.
(§3) Rats or mice were pretreated with vehicle or test compounds and placed back in home cage, following which they were individually placed in locomotor cages and activity was monitored in 1-5 minute intervals for intervals up to 60 min.
as §1

HERG current = HERG current (Homo sapiens, UniProt Q12809); experiment: inhibition of HERG current; assay type: cell-based
From the text: (§4) 4b. In Vitro PK Data (Human Metabolic Stability, Inhibition of CYP450 Enzymes, Inhibition of HERG Current)

[2] = target: T1, human serotonin (5-HT) reuptake transporter (Homo sapiens, UniProt P31645); experiment: functional uptake assay, human 5-HT reuptake transporter; assay type: cell-based
T1 construct: expressed in transfected cells
Description: (§5) Compounds were tested for their inhibition of functional uptake of serotonin (5-HT), norepinephrine (NE), and dopamine (DA), in synaptosomes prepared from rat whole brain, hypothalamus, or corpus striatum, respectively, and/or using recombinant human transporters.

[3] = target: T2, human norepinephrine (NE) reuptake transporter (Homo sapiens, UniProt P23975); experiment: functional uptake assay, human NE reuptake transporter; assay type: cell-based
T2 construct: expressed in transfected cells
Description: as §5

[4] = human metabolic stability (HLM t1/2); assay type: in vitro ADME; details: human liver microsomes
From the text: as §4

[5] = target: T3, human dopamine (DA) reuptake transporter (Homo sapiens, UniProt Q01959); experiment: functional uptake assay, human DA reuptake transporter; assay type: cell-based
T3 construct: expressed in transfected cells
Description: as §5

[6] = target: T4, Norepinephrine Transporter (NET) (Mus musculus, UniProt O55192); experiment: ex vivo [3H] nisoxetine binding to NET sites in mouse brain; details: mice, 60 minutes after treatment
T4 construct: Cortical membranes (400 μL; equivalent to 6.0 mg wet weight of tissue/tube); from tissue; host or cells: frontal cortex of C57BL/6 mice
Description: (§6) Receptor occupancy of central noradrenaline (NA), 5-HT and dopamine (DA) transporter sites following peripheral administration of compounds was determined using [^3H] nisoxetine, [^3H] citalopram and [^3H] WIN 35428 binding, respectively. Liquid scintillation counting was used to quantify the radioactivity.
(§7) C57BL/6 mice (25-30 g) were dosed orally with either vehicle or compound at 4 dose levels. Mice were sacrificed 60 minutes after treatment. Whole brains were removed and cortex and striata dissected out before being frozen on dry ice. The brain tissue was stored at −20° C. until the day of the assay. The cortex from each hemisphere was frozen separately. One was used to determine occupancy of NA transporter sites and the other occupancy of 5-HT transporter sites. Striatum was used to determine occupancy of DA transporter sites.
(§8) Frontal cortex from each hemisphere or striata was homogenized individually in ice-cold assay buffer using a tight fitting glass/Teflon homogenizer and used immediately in the binding assay.
Cortical membranes (400 μL; equivalent to 6.0 mg wet weight of tissue/tube) were incubated with 50 μL of [^3H] nisoxetine at a single concentration of 0.6 nM and either 50 μL of buffer (total binding) or 50 μL of mazindol (1 μM; non-specific binding) for 4 h at 4° C. For each animal, three tubes were used for the determination of total binding and three tubes were used for the determination of non-specific binding.
(§9) Membrane bound radioactivity was recovered by filtration under vacuum through Skatron 11731 filters, presoaked in 0.5% PEI, using a Skatron cell harvester. Filters were rapidly washed with ice-cold phosphate buffer and radioactivity (dpm) was determined by liquid scintillation counting (1 mL Packard MV Gold scintillator).
(§10) A value for specific binding (dpm) was generated by the subtraction of mean non-specific binding (dpm) from mean total binding (dpm) for each animal. Data are presented as mean specific binding (dpm) and as a percentage of the vehicle-treated control taken as 100%.

mice [7] = experiment: Mouse Locomotor Activity; assay type: in vivo; details: PO
Description: as §2, §3, §1

[8] = tested on: CYP2D6, CYP2C9, CYP3A4, CYP2C19, CYP1A (printed 1a); experiment: inhibition of CYP450 enzymes; assay type: in vitro ADME; details: 5 isoforms; read-out: CYP inhibition IC50 (microM) 5 isoforms (2D6, 2C9, 3A4, 2C19, 1a)
From the text: as §4

5-HT Transporter (SERT) = target: T5, 5-HT Transporter (SERT) (Mus musculus, UniProt Q60857); experiment: ex vivo [3H] citalopram binding to SERT sites in mouse brain; details: mice, 60 minutes after treatment
T5 construct: Cortical membranes (400 μL; equivalent to 1.25 mg wet weight of tissue/tube); from tissue; host or cells: frontal cortex of C57BL/6 mice
Description: as §6, §7, §8
Cortical membranes (400 μL; equivalent to 1.25 mg wet weight of tissue/tube) were incubated with 50 μl of [^3H] citalopram at a single concentration of 1.3 nM and either 50 μl of buffer (total binding) or 50 μl of paroxetine (0.5 μM; non-specific binding) for 1 h at 27° C. For each animal, three tubes were used for the determination of total binding and three tubes were used for the determination of non-specific binding.
as §9, §10

[9] = Example 6 summary of selected in vitro data, read-out: 5-HT IC50

T5 sequence (Q60857 whole entry): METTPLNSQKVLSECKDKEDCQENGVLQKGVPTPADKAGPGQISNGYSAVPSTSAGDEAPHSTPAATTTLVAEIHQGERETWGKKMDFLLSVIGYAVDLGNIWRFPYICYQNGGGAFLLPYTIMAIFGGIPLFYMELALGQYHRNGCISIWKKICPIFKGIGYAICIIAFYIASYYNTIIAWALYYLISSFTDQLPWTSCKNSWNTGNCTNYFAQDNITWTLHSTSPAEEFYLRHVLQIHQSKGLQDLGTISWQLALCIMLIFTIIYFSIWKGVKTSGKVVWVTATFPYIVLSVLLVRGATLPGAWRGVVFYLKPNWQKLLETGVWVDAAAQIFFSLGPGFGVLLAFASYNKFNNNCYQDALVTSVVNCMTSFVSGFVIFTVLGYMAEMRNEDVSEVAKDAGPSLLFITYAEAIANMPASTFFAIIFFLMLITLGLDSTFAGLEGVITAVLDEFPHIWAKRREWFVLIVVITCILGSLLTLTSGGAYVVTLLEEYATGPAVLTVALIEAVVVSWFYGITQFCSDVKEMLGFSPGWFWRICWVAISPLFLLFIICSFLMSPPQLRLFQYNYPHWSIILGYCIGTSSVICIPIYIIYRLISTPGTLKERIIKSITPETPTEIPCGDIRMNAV
T3 sequence (Q01959 whole entry): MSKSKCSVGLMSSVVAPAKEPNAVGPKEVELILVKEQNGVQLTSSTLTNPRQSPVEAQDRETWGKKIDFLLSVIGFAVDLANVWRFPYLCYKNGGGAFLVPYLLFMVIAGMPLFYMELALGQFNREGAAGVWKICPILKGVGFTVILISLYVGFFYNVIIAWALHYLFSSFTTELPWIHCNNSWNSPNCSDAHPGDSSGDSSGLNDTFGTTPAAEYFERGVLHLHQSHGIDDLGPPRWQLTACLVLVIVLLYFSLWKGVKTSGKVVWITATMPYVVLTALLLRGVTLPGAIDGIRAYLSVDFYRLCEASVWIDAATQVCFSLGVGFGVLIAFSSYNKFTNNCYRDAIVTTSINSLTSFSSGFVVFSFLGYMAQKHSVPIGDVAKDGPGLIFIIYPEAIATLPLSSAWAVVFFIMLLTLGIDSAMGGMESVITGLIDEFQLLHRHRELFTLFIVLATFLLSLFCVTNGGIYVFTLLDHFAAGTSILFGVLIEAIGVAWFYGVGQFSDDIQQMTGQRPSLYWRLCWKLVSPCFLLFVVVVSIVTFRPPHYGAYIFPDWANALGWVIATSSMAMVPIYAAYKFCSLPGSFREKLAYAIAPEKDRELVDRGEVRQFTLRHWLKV
T1 sequence (P31645 whole entry): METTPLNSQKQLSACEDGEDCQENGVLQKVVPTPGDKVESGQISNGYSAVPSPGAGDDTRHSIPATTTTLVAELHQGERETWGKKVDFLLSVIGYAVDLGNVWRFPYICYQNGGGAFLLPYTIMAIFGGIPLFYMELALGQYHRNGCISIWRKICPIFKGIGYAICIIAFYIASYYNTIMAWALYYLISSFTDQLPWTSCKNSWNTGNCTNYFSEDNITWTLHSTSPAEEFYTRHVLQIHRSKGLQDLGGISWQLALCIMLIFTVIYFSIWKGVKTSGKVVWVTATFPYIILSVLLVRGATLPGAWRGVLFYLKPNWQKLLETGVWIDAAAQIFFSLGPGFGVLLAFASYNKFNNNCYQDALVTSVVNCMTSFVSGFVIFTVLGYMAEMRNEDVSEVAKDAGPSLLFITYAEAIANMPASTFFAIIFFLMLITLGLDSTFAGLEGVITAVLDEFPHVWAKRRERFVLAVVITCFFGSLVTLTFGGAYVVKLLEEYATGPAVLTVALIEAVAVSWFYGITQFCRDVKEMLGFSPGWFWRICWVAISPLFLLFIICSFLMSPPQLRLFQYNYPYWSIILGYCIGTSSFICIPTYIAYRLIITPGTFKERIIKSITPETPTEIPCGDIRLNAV
T2 sequence (P23975 whole entry): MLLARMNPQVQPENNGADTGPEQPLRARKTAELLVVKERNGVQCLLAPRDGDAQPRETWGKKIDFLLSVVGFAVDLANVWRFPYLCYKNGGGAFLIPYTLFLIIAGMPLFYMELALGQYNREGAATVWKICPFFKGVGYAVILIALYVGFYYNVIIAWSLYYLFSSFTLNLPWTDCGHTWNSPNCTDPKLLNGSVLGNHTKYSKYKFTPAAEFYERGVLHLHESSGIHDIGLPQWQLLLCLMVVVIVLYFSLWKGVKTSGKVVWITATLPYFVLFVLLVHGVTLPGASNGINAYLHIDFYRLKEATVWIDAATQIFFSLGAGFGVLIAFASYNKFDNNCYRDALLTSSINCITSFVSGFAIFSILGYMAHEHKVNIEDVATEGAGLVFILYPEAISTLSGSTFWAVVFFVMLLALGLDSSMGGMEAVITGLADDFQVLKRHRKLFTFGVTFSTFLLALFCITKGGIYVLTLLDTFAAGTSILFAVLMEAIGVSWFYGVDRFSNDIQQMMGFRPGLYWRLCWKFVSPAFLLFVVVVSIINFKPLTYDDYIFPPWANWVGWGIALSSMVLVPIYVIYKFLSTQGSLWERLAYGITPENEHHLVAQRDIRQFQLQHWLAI
T4 sequence (O55192 whole entry): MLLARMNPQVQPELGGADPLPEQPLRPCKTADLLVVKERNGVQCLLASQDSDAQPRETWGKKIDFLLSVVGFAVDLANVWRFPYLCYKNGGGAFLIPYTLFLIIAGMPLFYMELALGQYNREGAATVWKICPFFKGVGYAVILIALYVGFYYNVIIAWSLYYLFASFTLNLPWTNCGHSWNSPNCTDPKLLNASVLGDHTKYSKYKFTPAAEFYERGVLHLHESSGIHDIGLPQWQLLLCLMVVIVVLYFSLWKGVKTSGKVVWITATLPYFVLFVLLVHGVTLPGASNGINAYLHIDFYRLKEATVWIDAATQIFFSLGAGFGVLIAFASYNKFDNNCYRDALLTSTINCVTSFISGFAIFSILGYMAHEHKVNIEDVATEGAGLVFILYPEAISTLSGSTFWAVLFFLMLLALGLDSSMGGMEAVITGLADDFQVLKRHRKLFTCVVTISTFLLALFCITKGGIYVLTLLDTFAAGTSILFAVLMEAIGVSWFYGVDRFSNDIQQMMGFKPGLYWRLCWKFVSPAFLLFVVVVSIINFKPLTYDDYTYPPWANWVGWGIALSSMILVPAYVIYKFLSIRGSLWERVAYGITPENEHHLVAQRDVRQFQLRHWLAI
Chain of HERG current (Q12809 whole entry): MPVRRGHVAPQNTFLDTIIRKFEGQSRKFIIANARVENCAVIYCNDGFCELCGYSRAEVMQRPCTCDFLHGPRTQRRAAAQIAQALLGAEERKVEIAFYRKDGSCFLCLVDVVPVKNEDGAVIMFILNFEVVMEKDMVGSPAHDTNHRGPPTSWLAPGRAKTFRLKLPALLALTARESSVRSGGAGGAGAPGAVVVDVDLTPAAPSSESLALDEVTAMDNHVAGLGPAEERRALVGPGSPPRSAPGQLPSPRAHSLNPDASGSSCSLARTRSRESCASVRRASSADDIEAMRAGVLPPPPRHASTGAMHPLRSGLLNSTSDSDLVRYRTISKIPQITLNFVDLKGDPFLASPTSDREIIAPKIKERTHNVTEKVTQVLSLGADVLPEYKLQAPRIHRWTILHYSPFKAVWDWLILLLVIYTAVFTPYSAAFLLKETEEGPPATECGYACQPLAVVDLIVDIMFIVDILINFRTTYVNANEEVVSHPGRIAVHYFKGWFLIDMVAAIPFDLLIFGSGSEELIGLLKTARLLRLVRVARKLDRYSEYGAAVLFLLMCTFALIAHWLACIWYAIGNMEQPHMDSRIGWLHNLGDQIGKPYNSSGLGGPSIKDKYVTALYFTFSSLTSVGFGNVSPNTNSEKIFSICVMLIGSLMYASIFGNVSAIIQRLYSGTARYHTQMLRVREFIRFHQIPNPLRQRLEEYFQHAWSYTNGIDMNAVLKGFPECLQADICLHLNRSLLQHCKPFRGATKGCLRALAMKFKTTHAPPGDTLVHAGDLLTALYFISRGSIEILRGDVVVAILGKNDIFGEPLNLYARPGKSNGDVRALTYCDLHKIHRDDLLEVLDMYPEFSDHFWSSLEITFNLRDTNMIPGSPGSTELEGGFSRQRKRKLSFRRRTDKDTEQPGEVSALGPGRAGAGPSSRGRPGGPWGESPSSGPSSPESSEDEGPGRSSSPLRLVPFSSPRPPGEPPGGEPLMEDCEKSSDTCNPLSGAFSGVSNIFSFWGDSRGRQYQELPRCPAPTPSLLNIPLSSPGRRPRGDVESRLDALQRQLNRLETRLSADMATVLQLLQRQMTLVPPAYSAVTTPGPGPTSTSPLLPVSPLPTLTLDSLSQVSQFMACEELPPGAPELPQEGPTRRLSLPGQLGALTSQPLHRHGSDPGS

CN(C)C[C@@H]1CCCC[C@@]1(O)c1ccc(Cl)c(Cl)c1 (single isomer, unassigned) [Compound 2, cis-1-(3,4-dichlorophenyl)-2-((dimethylamino)methyl)cyclohexanol]
Mouse Tail Suspension Mean Immobility Time ± S.E.M. (mice [1]; 0.3 mg/kg): +++ (171-190 (+++)) | Mouse Tail Suspension Mean Immobility Time ± S.E.M. (mice [1]; 1 mg/kg): +++ (171-190 (+++)) | Mouse Tail Suspension Mean Immobility Time ± S.E.M. (mice [1]; 10 mg/kg): + (100-160 (+)) | Mouse Tail Suspension Mean Immobility Time ± S.E.M. (mice [1]; 30 mg/kg): + (100-160 (+)) | Rat Locomotor Activity Total Distance Traveled ± S.E.M. (rats; 1 mg/kg): ° (100-2500 (°)) | Rat Locomotor Activity Total Distance Traveled ± S.E.M. (rats; 3 mg/kg): ° (100-2500 (°)) | Rat Locomotor Activity Total Distance Traveled ± S.E.M. (rats; 10 mg/kg): °°° (>5001 (°°°)) | IC50 (HERG current; read-out: HERG IC50): 16 to 30 µM | IC50 ([2]; 5-HT IC50 (nM), Example 4a, human reuptake transporter): 7000 to 10000 nM | IC50 [2, 9]: 1 to 2000 nM | IC50 [3]: 10 to 200 nM | IC50 ([3]; Example 6 summary of selected in vitro data, read-out: NE IC50): 10 to 200 nM | half-life [4]: 0.417 to 2.92 h | IC50 [5]: 10 to 200 nM | IC50 ([5]; Example 6 summary of selected in vitro data, read-out: DA IC50): 10 to 200 nM | % Transporter Occupancy, NET ([6]; 1 mg/kg PO): 19% | % Transporter Occupancy, NET ([6]; 3 mg/kg PO): 44% | % Transporter Occupancy, NET ([6]; 10 mg/kg PO): 74% | % Transporter Occupancy, NET ([6]; 30 mg/kg PO): 89% | Mouse Locomotor Activity Total Distance Traveled ± S.E.M. (mice [7]; 0.3 mg/kg): ** (501-700 (**)) | Mouse Locomotor Activity Total Distance Traveled ± S.E.M. (mice [7]; 1 mg/kg): ** (501-700 (**)) | Mouse Locomotor Activity Total Distance Traveled ± S.E.M. (mice [7]; 10 mg/kg): **** (>901 (****)) | Mouse Locomotor Activity Total Distance Traveled ± S.E.M. (mice [7]; 30 mg/kg): * (100-500 (*)) | IC50 [8]: > 20 µM | % Transporter Occupancy, SERT (5-HT Transporter (SERT); 1 mg/kg PO): 11% | % Transporter Occupancy, SERT (5-HT Transporter (SERT); 3 mg/kg PO): −1% | % Transporter Occupancy, SERT (5-HT Transporter (SERT); 10 mg/kg PO): 6% | % Transporter Occupancy, SERT (5-HT Transporter (SERT); 30 mg/kg PO): 5%

CNC[C@@H]1CCCC[C@@]1(O)c1ccc(Cl)c(Cl)c1 [Compound 4]
Mouse Tail Suspension Mean Immobility Time ± S.E.M. (mice [1]; 1 mg/kg): ++++ (>191 (++++)) | Mouse Tail Suspension Mean Immobility Time ± S.E.M. (mice [1]; 3 mg/kg): ++++ (>191 (++++)) | Mouse Tail Suspension Mean Immobility Time ± S.E.M. (mice [1]; 10 mg/kg): +++ (171-190 (+++)) | Mouse Tail Suspension Mean Immobility Time ± S.E.M. (mice [1]; 30 mg/kg): + (100-160 (+)) | IC50 (HERG current): 1 to 15 µM | IC50 ([2]; Example 4a, human reuptake transporter, read-out: 5-HT IC50): > 10000 nM | IC50 [2, 9]: > 10000 nM | IC50 [3]: 10 to 200 nM | IC50 ([3]; read-out: NE IC50 nM, Example 6 summary of selected in vitro data): 10 to 200 nM | half-life [4]: 2.93 to 5.42 h | IC50 [5]: 10 to 200 nM | IC50 ([5]; read-out: DA IC50 nM, Example 6 summary of selected in vitro data): 10 to 200 nM | Mouse Locomotor Activity Total Distance Traveled ± S.E.M. (mice [7]; 1 mg/kg): ** (501-700 (**)) | Mouse Locomotor Activity Total Distance Traveled ± S.E.M. (mice [7]; 3 mg/kg): ** (501-700 (**)) | Mouse Locomotor Activity Total Distance Traveled ± S.E.M. (mice [7]; 10 mg/kg): *** (701-900 (***)) | Mouse Locomotor Activity Total Distance Traveled ± S.E.M. (mice [7]; 30 mg/kg): * (100-500 (*)) | IC50 [8]: > 10 µM
